Measurements: patent US10487088B2, “Tricyclic compound serving as immunomodulator” (Chia Tai Tianqing Pharmaceutical Group Co., Ltd., priority 2016, dated 2019)

target: T1, recombinant human IDO1 enzyme (Homo sapiens, UniProt P14902); assay: In vitro hIDO1 enzyme activity test (NFK Green fluorescence); assay type: biochemical; details: recombinant human IDO1, L-tryptophan substrate, pH 6.5
T1 construct: purchased NTRC NTRC-hlDO-10K
Protocol: The change of NFK production was detected by using the NFK Green™ fluorescent molecule, which is the metabolite of the IDO1 enzyme, and the IC50 value of the compound was used as an index, to evaluate the inhibitory effect of the compound on the recombinant human IDO1 enzyme.
IDO1 Enzyme Activity Assay Kit, NTRC # NTRC-hlDO-10K;
The compound was diluted to 1 mM in DMSO, and then diluted 3-fold in duplicate wells, with 10 gradients. 48 μL of 50 mM phosphate buffer (pH 6.5) was transferred to the compound plate via Bravo automated liquid handling platform. 2 μL of the diluted solution of the compound in DMSO was then added and mixed, followed by transferring 10 μL therein to an enzyme reaction plate.
The IDO1 enzyme was diluted to 20 nM in the reaction buffer (50 mM phosphate buffer pH 6.5, 0.1% Tween-20, 2% glycerol, 20 mM ascorbic acid, 20 μg/mL catalase and 20 μM methylene blue), and 20 μL of the solution was transferred to an enzyme reaction plate and incubated at 23° C. for 30 min. The reaction was started by adding 10 μL of 400 μM L-type tryptophan substrate and incubated at 23° C. for 90 min. 10 μL of NFK Green™ fluorescent dye was added, and the plate was sealed with the sealing film, incubated at 37° C. for 4 h, and then read on Envision Multimode Plate Reader (Ex 400 nm/Em 510 nm).
The control wells with the IDO1 enzyme but no compound was set as 0% inhibition, and the control wells without the IDO1 enzyme was set as 100% inhibition, and the IC50 value of the compound was calculated by analyzing the data with XLFit 5.

T1 sequence (P14902 whole entry): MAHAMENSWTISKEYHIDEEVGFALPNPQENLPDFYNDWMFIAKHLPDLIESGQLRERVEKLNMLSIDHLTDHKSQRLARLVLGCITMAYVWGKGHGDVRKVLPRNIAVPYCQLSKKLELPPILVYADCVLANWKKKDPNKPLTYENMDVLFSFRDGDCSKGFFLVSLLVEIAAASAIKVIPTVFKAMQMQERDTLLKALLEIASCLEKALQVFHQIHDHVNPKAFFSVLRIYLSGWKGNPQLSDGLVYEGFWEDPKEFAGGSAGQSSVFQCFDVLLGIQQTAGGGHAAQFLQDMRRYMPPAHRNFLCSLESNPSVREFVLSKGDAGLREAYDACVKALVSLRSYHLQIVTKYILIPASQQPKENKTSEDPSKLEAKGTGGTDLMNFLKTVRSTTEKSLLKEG

Q: c1ccc2c(c1)CCC(C1c3sccc3-c3cncn31)C2 (single isomer, unassigned) [Example 55, 8-tetrahydronaphthalen-2-yl-8H-thieno[3,4]pyrrolo[1,5-a]imidazole] was tested. Which IC50 did it give?
A: > 10 µM

Q: Which IC50 does the source give for c1ccc2c(c1)CCC(C1c3sccc3-c3cncn31)C2 (single isomer, unassigned) [Example 56, 8-tetrahydronaphthalen-2-yl-8H-thieno[3,4]pyrrolo[1,5-a]imidazole] here?
A: 0.851 µM

Q: For c1ccc2c(c1)CCC(C1c3sccc3-c3cncn31)C2 (single isomer, unassigned) [Example 57, 8-tetrahydronaphthalen-2-yl-8H-thieno[3,4]pyrrolo[1,5-a]imidazole], which IC50 is on record?
A: 0.886 µM

Q: Which IC50 does the source give for OC1CC(C2c3sccc3-c3cncn32)C1 (single isomer, unassigned) [Example 58, 3-(8H-thieno[3,4]pyrrolo[1,5-a]imidazol-8-yl)cyclobutanol] here?
A: 2.1 µM

Q: For OC1CC(C2c3sccc3-c3cncn32)C1 (single isomer, unassigned) [Example 59, 3-(8H-thieno[3,4]pyrrolo[1,5-a]imidazol-8-yl)cyclobutanol], which IC50 is on record?
A: > 10 µM

Q: For OC1CC(C2c3sccc3-c3cncn32)C1 (single isomer, unassigned) [Example 60, 3-(8H-thieno[3,4]pyrrolo[1,5-a]imidazol-8-yl)cyclobutanol], which IC50 is on record?
A: > 10 µM

Q: Which IC50 does the source give for OC1CC(C2c3sccc3-c3cncn32)C1 (single isomer, unassigned) [Example 61, 3-(8H-thieno[3,4]pyrrolo[1,5-a]imidazol-8-yl)cyclobutanol] here?
A: 1.2 µM

Q: For OC1CCCC(C2c3sccc3-c3cncn32)C1 (single isomer, unassigned) [Example 64, 3-(8H-thieno[3′,2′:3,4]pyrrolo[1,2-c]imidazol-8-yl)cyclohexanol], which IC50 is on record?
A: > 10 µM

Q: Which IC50 does the source give for OC1CCCC(C2c3sccc3-c3cncn32)C1 (single isomer, unassigned) [Example 65, 3-(8H-thieno[3′,2′:3,4]pyrrolo[1,2-c]imidazol-8-yl)cyclohexanol] here?
A: 5.53 µM

Q: Which IC50 does the source give for OC1CCCC(C2c3sccc3-c3cncn32)C1 (single isomer, unassigned) [Example 66, 3-(8H-thieno[3′,2′:3,4]pyrrolo[1,2-c]imidazol-8-yl)cyclohexanol] here?
A: > 10 µM

Q: OC1CCCC(C2c3sccc3-c3cncn32)C1 (single isomer, unassigned) [Example 67, 3-(8H-thieno[3′,2′:3,4]pyrrolo[1,2-c]imidazol-8-yl)cyclohexanol] was tested. Which IC50 did it give?
A: 0.162 µM

Q: OC1CCCC(C2c3sccc3-c3cncn32)C1 (single isomer, unassigned) [Example 68, 3-(8H-thieno[3′,2′:3,4]pyrrolo[1,2-c]imidazol-8-yl)cyclohexanol] was tested. Which IC50 did it give?
A: 1.83 µM

Q: With OC1CCCC(C2c3sccc3-c3cncn32)C1 (single isomer, unassigned) [Example 69, 3-(8H-thieno[3′,2′:3,4]pyrrolo[1,2-c]imidazol-8-yl)cyclohexanol] as the compound, how does the IC50 read?
A: 2.32 µM

Q: For OC1CCCC(C2c3sccc3-c3cncn32)C1 (single isomer, unassigned) [Example 70, 3-(8H-thieno[3′,2′:3,4]pyrrolo[1,2-c]imidazol-8-yl)cyclohexanol], which IC50 is on record?
A: 1.09 µM

Q: OC1CCCC(C2c3sccc3-c3cncn32)C1 (single isomer, unassigned) [Example 71, 3-(8H-thieno[3′,2′:3,4]pyrrolo[1,2-c]imidazol-8-yl)cyclohexanol] was tested. Which IC50 did it give?
A: > 10 µM

Q: c1cc2c(s1)C(C1CCCC1)n1cncc1-2 (single isomer, unassigned) [Example 74, 8-cyclopentyl-8H-thieno[3,4]pyrrolo[1,5-a]imidazole] was tested. Which IC50 did it give?
A: 0.257 µM

Q: c1cc2c(s1)C(C1CCCC1)n1cncc1-2 (single isomer, unassigned) [Example 75, 8-cyclopentyl-8H-thieno[3,4]pyrrolo[1,5-a]imidazole] was tested. Which IC50 did it give?
A: > 10 µM

Q: FC1(F)[C@@H]2C[C@H](C3c4sccc4-c4cncn43)C[C@@H]21 (single isomer, unassigned) [Example 76, 8-(6,6-difluoro-3-bicyclo[3.1.0]cyclohexyl)-8H-thieno[3,4]pyrrolo[1,5-a]imidazole (cis)] was tested. Which IC50 did it give?
A: 0.883 µM

Q: With CC1(C)CC(C2c3sccc3-c3cncn32)CCO1 (single isomer, unassigned) [Example 78, 8-(2,2-dimethyltetrahydropyran-4-yl)-8H-thieno[3,4]pyrrolo[1,5-a]imidazole] as the compound, how does the IC50 read?
A: > 10 µM

Q: CC1(C)CC(C2c3sccc3-c3cncn32)CCO1 (single isomer, unassigned) [Example 79, 8-(2,2-dimethyltetrahydropyran-4-yl)-8H-thieno[3,4]pyrrolo[1,5-a]imidazole] was tested. Which IC50 did it give?
A: > 10 µM

Q: For CC1(C)CC(C2c3sccc3-c3cncn32)CCO1 (single isomer, unassigned) [Example 80, 8-(2,2-dimethyltetrahydropyran-4-yl)-8H-thieno[3,4]pyrrolo[1,5-a]imidazole], which IC50 is on record?
A: 5.05 µM

Q: With CC1(C)CC(C2c3sccc3-c3cncn32)CCO1 (single isomer, unassigned) [Example 81, 8-(2,2-dimethyltetrahydropyran-4-yl)-8H-thieno[3,4]pyrrolo[1,5-a]imidazole] as the compound, how does the IC50 read?
A: 8.27 µM

Q: Which IC50 does the source give for OC1CCCCC1C1c2sccc2-c2cncn21 (single isomer, unassigned) [Example 82] here?
A: 1.55 µM

Q: For OC1CCCCC1C1c2sccc2-c2cncn21 (single isomer, unassigned) [Example 83], which IC50 is on record?
A: 1.27 µM

Q: Which IC50 does the source give for OC1CCCCC1C1c2sccc2-c2cncn21 (single isomer, unassigned) [Example 84] here?
A: 0.454 µM

Q: With c1ccc(N2CCC(C3c4sccc4-c4cncn43)CC2)cc1 (single isomer, unassigned) [Example 86, 8-(1-phenylpiperidin-4-yl)-8H-thieno[3′,2′:3,4]pyrrolo[1,2-c]imidazole] as the compound, how does the IC50 read?
A: 0.545 µM

Q: c1ccc(N2CCC(C3c4sccc4-c4cncn43)CC2)cc1 (single isomer, unassigned) [Example 87, 8-(1-phenylpiperidin-4-yl)-8H-thieno[3′,2′:3,4]pyrrolo[1,2-c]imidazole] was tested. Which IC50 did it give?
A: > 10 µM

Q: c1ccc(C2CCC(C3c4sccc4-c4cncn43)CC2)cc1 (single isomer, unassigned) [Example 88, 8-(4-phenylcyclohexyl)-8H-thieno[3′,2′:3,4]pyrrolo[1,2-c]imidazole] was tested. Which IC50 did it give?
A: 0.478 µM

Q: c1ccc(C2CCC(C3c4sccc4-c4cncn43)CC2)cc1 (single isomer, unassigned) [Example 89, 8-(4-phenylcyclohexyl)-8H-thieno[3′,2′:3,4]pyrrolo[1,2-c]imidazole] was tested. Which IC50 did it give?
A: > 10 µM

Q: Which IC50 does the source give for Cc1cc2c(s1)C(C1CCCCC1)n1cncc1-2 (single isomer, unassigned) [Example 90, 8-cyclohexyl-2-dimethyl-8H-thieno[3′,2′:3,4]pyrrolo[1,2-c]imidazole] here?
A: > 10 µM

Q: How did the IC50 turn out when Cc1cc2c(s1)C(C1CCCCC1)n1cncc1-2 (single isomer, unassigned) [Example 91, 8-cyclohexyl-2-dimethyl-8H-thieno[3′,2′:3,4]pyrrolo[1,2-c]imidazole] was run?
A: 6.75 µM

Q: How did the IC50 turn out when c1ccc2c(C3CCC(C4c5sccc5-c5cncn54)CC3)ccnc2c1 (single isomer, unassigned) [Example 92, 5-(4-(quinolin-4-yl)cyclohexyl)-8H-thieno[3′,2′:3,4]pyrrolo[1,2-c]imidazole] was run?
A: 0.686 µM

Q: For c1ccc2c(C3CCC(C4c5sccc5-c5cncn54)CC3)ccnc2c1 (single isomer, unassigned) [Example 93, 5-(4-(quinolin-4-yl)cyclohexyl)-8H-thieno[3′,2′:3,4]pyrrolo[1,2-c]imidazole], which IC50 is on record?
A: > 10 µM

Q: For c1ccc2c(C3CCC(C4c5sccc5-c5cncn54)CC3)ccnc2c1 (single isomer, unassigned) [Example 94, 5-(4-(quinolin-4-yl)cyclohexyl)-8H-thieno[3′,2′:3,4]pyrrolo[1,2-c]imidazole], which IC50 is on record?
A: 1.46 µM

Q: Which IC50 does the source give for c1ccc2c(C3CCC(C4c5sccc5-c5cncn54)CC3)ccnc2c1 (single isomer, unassigned) [Example 95, 5-(4-(quinolin-4-yl)cyclohexyl)-8H-thieno[3′,2′:3,4]pyrrolo[1,2-c]imidazole] here?
A: > 10 µM

Q: How did the IC50 turn out when O=C(O)C1CCCC(C2c3sccc3-c3cncn32)C1 (single isomer, unassigned) [Example 97, 3-(8H-thieno[3,4]pyrrolo[1,5-a]imidazol-8-yl) cyclohexylcarboxylic acid] was run?
A: > 10 µM

Q: For O=C(O)C1CCCC(C2c3sccc3-c3cncn32)C1 (single isomer, unassigned) [Example 98, 3-(8H-thieno[3,4]pyrrolo[1,5-a]imidazol-8-yl) cyclohexylcarboxylic acid], which IC50 is on record?
A: > 10 µM

Q: Which IC50 does the source give for O=C(O)C1CCCC(C2c3sccc3-c3cncn32)C1 (single isomer, unassigned) [Example 99, 3-(8H-thieno[3,4]pyrrolo[1,5-a]imidazol-8-yl) cyclohexylcarboxylic acid] here?
A: > 10 µM

Q: How did the IC50 turn out when O=C(O)C1CCCC(C2c3sccc3-c3cncn32)C1 (single isomer, unassigned) [Example 100, 3-(8H-thieno[3,4]pyrrolo[1,5-a]imidazol-8-yl) cyclohexylcarboxylic acid] was run?
A: 6.77 µM
